Like-named read-outs stand apart in the source and are kept apart here.
Tests used:
[1] = RMC-4630-01 phase 1 study: pharmacokinetics in patients; format: in vivo, human; conditions: for AUC(0-t) / Cmax / Tmax / half-life: human, plasma, oral; for Cmax: read-out: Cmax [Mean(CV %)]; for Tmax: read-out: Median Tmax (range)
Source text: RMC-4630-01 is a phase 1 dose escalation study in patients with advanced cancers that evaluates the safety, pharmacokinetics and pharmacodynamic effects of RMC-4630 as a single agent under two different dose administration schedules; daily dosing and twice weekly dosing.
The RMC-4630-01 study was initially designed to evaluate two different schedules: a daily dosing schedule and an intermittent dosing schedule (D1, D4 of every week).

[2] = system: non-small cell lung cancer (NSCLC) having a mutation in KRAS (KRAS^G12C); assay: Preclinical mouse model of NSCLC with KRAS G12C (FIG. 2); format: in vivo; conditions: daily at either 10 mg/kg or 30 mg/kg
Procedure: In this study, RMC-4630 was administered daily at either 10 mg/kg or 30 mg/kg.

[3] = 140 mg, 140 mg twice weekly (D1, D4), Cycle/Day 1/1
[4] = 140 mg, 140 mg twice weekly (D1, D4), Cycle/Day 1/15
[5] = 200 mg, 200 mg twice weekly (D1, D4), Cycle/Day 1/1
[6] = 200 mg, 200 mg twice weekly (D1, D4), Cycle/Day 1/15

For `Cc1nc(N2CCC3(CC2)CO[C@@H](C)[C@H]3N)c(CO)nc1Sc1ccnc(N)c1Cl` [RMC-4630], which “total exposure over a 24 hour period” value ([1]; 60 mg daily (putative MTD)) is on record?
The value was 14.6 µM·h.

What about the “Mean accumulation (AUC0-24 ratio)” value ([1]; 140 mg twice weekly (D1, D4), Cycle/Day 1/15) of the same molecule?
The value was 1.3.

And the “Cmax concentrations compared with the apoptotic threshold” value ([1]; 200 mg D1, D2)?
The value was “generally above”.

What about the “trough concentrations towards the end of the week” value ([1]; 200 mg D1, D2) of the same molecule?
The value was “below those thought to be required for normal tissue recovery”.

And the “Mean accumulation (AUC0-24 ratio)” value ([1]; 200 mg twice weekly (D1, D2), Cycle/Day 1/15)?
The value was 1.0.

And the “Mean accumulation (AUC0-24 ratio)” value ([1]; 200 mg twice weekly (D1, D4), Cycle/Day 1/15)?
Its value is 1.1.

And the “plasma exposure compared with range active in preclinical models” value ([1]; both dose levels (140 mg, 200 mg), D1, D4 schedule)?
The value was “within the range anticipated to be biologically active”.

What about the exposure versus dose ([1]; daily dosing) of the same molecule?
The exposure versus dose was “increased approximately proportionally with increasing dose”.

What about the “time to steady state of plasma concentrations” value ([1]; daily dosing) of the same molecule?
Its value is at most 22 days.

What about the AUC(0-t) ([1]; 140 mg, 140 mg twice weekly (D1, D4), Cycle/Day 1/1, read-out: AUC0-24 [Mean(CV %)]) of the same molecule?
Its AUC(0-t) is 10.8 µM·h.

And the AUC(0-t) ([1]; 140 mg, 140 mg twice weekly (D1, D4), Cycle/Day 1/1, read-out: AUC0-72 [Mean(CV %)])?
The AUC(0-t) was 19.7 µM·h.

What about the Cmax [1, 3] of the same molecule?
The Cmax was 915 nM.

What about the Tmax [1, 3] of the same molecule?
Its Tmax is 2 h.

What about the half-life ([1]; 140 mg, 140 mg twice weekly (D1, D4), Cycle/Day 1/1, read-out: Median t1/2 (range) (converted)) of the same molecule?
The half-life was 28 h.

And the AUC(0-t) ([1]; 140 mg, 140 mg twice weekly (D1, D4), Cycle/Day 1/15, read-out: AUC0-24 [Mean(CV %)])?
Its AUC(0-t) is 14 µM·h.

And the Cmax [1, 4]?
Its Cmax is 935 nM.

What about the Tmax [1, 4] of the same molecule?
The Tmax was 2 h.

And the half-life ([1]; 140 mg, following a single dose at 140 mg, read-out: median half-life (converted))?
Its half-life is about 28 h.

And the AUC(0-t) ([1]; 200 mg, 200 mg twice weekly (D1, D2), Cycle/Day 1/1, read-out: AUC0-24 [Mean(CV %)])?
Its AUC(0-t) is 13.9 µM·h.

And the Cmax ([1]; 200 mg, 200 mg twice weekly (D1, D2), Cycle/Day 1/1)?
The Cmax was 1580 nM.

And the Tmax ([1]; 200 mg, 200 mg twice weekly (D1, D2), Cycle/Day 1/1, time post D2 dosing)?
Its Tmax is 3 h.

And the AUC(0-t) ([1]; 200 mg, 200 mg twice weekly (D1, D2), Cycle/Day 1/15, read-out: AUC0-24 [Mean(CV %)])?
The AUC(0-t) was 14.5 µM·h.

And the Cmax ([1]; 200 mg, 200 mg twice weekly (D1, D2), Cycle/Day 1/15)?
The Cmax was 1630 nM.

And the Tmax ([1]; 200 mg, 200 mg twice weekly (D1, D2), Cycle/Day 1/15, time post D16 dosing)?
The Tmax was 2 h.

And the AUC(0-t) ([1]; 200 mg, 200 mg twice weekly (D1, D4), Cycle/Day 1/1, read-out: AUC0-24 [Mean(CV %)])?
The AUC(0-t) was 17.5 µM·h.

What about the AUC(0-t) ([1]; 200 mg, 200 mg twice weekly (D1, D4), Cycle/Day 1/1, read-out: AUC0-72 [Mean(CV %)]) of the same molecule?
The AUC(0-t) was 39 µM·h.

What about the Cmax [1, 5] of the same molecule?
Its Cmax is 1380 nM.

What about the Tmax [1, 5] of the same molecule?
Its Tmax is 2 h.

And the half-life ([1]; 200 mg, 200 mg twice weekly (D1, D4), Cycle/Day 1/1, read-out: Median t1/2 (range) (converted))?
The half-life was 33 h.

And the AUC(0-t) ([1]; 200 mg, 200 mg twice weekly (D1, D4), Cycle/Day 1/15, read-out: AUC0-24 [Mean(CV %)])?
Its AUC(0-t) is 18.6 µM·h.

And the Cmax [1, 6]?
The Cmax was 1230 nM.

What about the Tmax [1, 6] of the same molecule?
Its Tmax is 3 h.

And the half-life ([1]; 200 mg, following a single dose at 200 mg, read-out: median half-life (converted))?
Its half-life is about 33 h.

And the half-life ([1]; po, patients, D1, D4 intermittent schedule, read-out: half-life (estimated) (converted))?
Its half-life is 25 h.

And the “accumulation from day 1 to day 15” value ([1]; twice weekly intermittent dosing (D1, D4 or D1, D2))?
Its value is “No accumulation”.

And the “anti-tumor effect (FIG. 2)” value [2]?
The value was “induces status and regression”.

— patent US20230070338A1, “SHP2 Inhibitor Dosing and Methods of Treating Cancer” (Revolution Medicines, Inc., priority 2020, published 2023)
